Earlier results, collected in patent US20020179884A1, “Disinfecting and deodorizing agent” (priority 2000, published 2002).

Conditions: 25° C.

Structure (SMILES)	pKa25
O=C([O-])O.[Na+] [sodium hydrogencarbonate]	10.33
O=BOB(O)OB(O)OB=O [sodium tetraborate]	9.24
O=P(O)(O)OP(=O)(O)OP(=O)(O)O [sodium tripolyphosphate]	9.70
O=P([O-])([O-])OP(=O)([O-])O.[Na+].[Na+].[Na+] [trisodium pyrophosphate]	8.95
